Results reported in patent US20210393549A1, “New use of R-enantiomer of adrenergic beta 2 receptor agonists for treatment of inflammatory bowel disease and its extra intestinal manifestations” (priority 2018, published 2021).
Entries after “also recorded” stand apart in the source; their conditions may differ. Where two headings read alike, the source gives them in different places.

How the values were obtained:
[1] = system: DSS induced acute colitis; conditions: for colon histology (H&E), in words: Example 1, compared with untreated DSS mice; for Hist score (histological score): epithelium 0-4 plus infiltration 0-4; for Hist score (histological score) / Col Length (colon length): tenth day; for Hist score (histological score) / FOB (fecal occult blood) / Weight / DAI (disease active index) / Col Length (colon length): 1 mg/kg (R-B, S-B 10 mg/kg; RS-C 2 mg/kg); for Hist score (histological score) / FOB (fecal occult blood) / Weight / Col Length (colon length): mean ± SD; for FOB (fecal occult blood): grade 0, 2, 4; for FOB (fecal occult blood) / Weight / Col Length (colon length): i.g. daily 8 days; for DAI (disease active index): score 0 to 12, i.g. daily 8 days from 2nd day of DSS, n=5
Source text: In one embodiment, IBD was induced in mice by add DSS into drink water for 7 days. […] (Cooper, S. et al., Clinic pathologic study of dextran sulfate sodium experimental murine colitis, Laboratory Investigation, vol. 69, no. 2, p. 238-249, 1993)
The mice were scarified at day 10th for anatomy and histology evaluations. […] Each of the above histological features was scored individually and added together which is then collectively expressed as “histological score”, for quantitative evaluation (Cooper, S. et al., above).
Male C57BL mice (8-10 weeks, 18-20 g) were grouped into control (drinking water only), DSS and DSS plus treatment groups (n=5). Acute colitis was induced by feeding mice with 2% (w/v) dextran sulfate sodium (DSS) (molecular mass 36-50 kDa) added to the drinking water given ad libitum for 7 days. At the end of seventh day, DSS was removed and animals received only drinking water for 2 days. The animals were euthanized for anatomical and histological examination at the tenth day after DSS ingestion.
R-salbutamol (R-S) (1 mg/kg, S-salbutamol (S-S) (1 mg/kg), R-terbutaline (R-T) (1 mg/kg), S-terbutaline (S-T) (1 mg/kg), R-bambuterol (10 mg/kg), S-bambuterol (S-B) (10 mg/kg), R-clenbuterol (R-C) (1 mg/kg), RS-clenbuterol (RS-C) (2 mg/kg) were administered i.g. daily, starting from the 2nd day of DSS induction for consecutive 8 days. Dexamethasone (Dex), 1 mg/kg) was used as a reference drug.
Evaluation of disease symptoms and histological changes Disease activity index (DAI): Animals were monitored daily for weight, water/food consumption, morbidity, stool consistency and fecal blood. […] The colon length was recorded as an indicator of inflammation. The entire colon was cut open longitudinally and gently flushed with sterile phosphate-buffered saline (PBS) to remove any traces of feces for pathology preparation. Colon segments were fixed in 10% neutral buffered formalin. Tissues were embedded in paraffin, sectioned, mounted on slides. H&E-stained paraffin section images were acquired. Pathological evaluation was conducted in a blinded manner.
Histological Score: the scores were given as follows: epithelium, 0=normal morphology, 1=loss of goblet cells, 2=loss of goblet cells in large areas, 3=loss of crypts, and 4=loss of crypts in large areas; and inflammation cells infiltration, 0=no infiltrate, 1=infiltrate around the crypt basis, 2=infiltrate reaching the muscularis mucosae, 3=extensive infiltration reaching the muscularis mucosae and thickening of the mucosa with abundant edema, and 4=infiltration of the submucosa. Data were presented as mean±the standard deviation (SD).

[2] = system: DSS induced sub-acute colitis; format: in vivo; design: DAI (disease active index) / FOB (fecal occult blood) / Hist score (histological score): scale not given here; Weight / Col Length (colon length): unit not given here
Source text: This invention also disclosed the used of R-salbutamol for treatment of sub acute or chronic phases of IBD. In one embodiment, IBD was induced by DSS as mentioned above, along with the treatment of R-salbutamol, at day 7th, DSS was removed and replaced with drinking water for additional 2 weeks. The disease active index (DAI) of mice was examined and evaluated periodically. The mice were scarified for pathological and histological evaluations at day of 23rd. In DSS induce IBD mice, there were significant loss of weight and fecal occult blood at day 14th and 22nd. The overall condition of colitis was severe although there was slightly improvement comparing the day 7th. The colon-rector length was significant shortened, and histological score were significant higher from control. In mice with DSS induced colitis, there were significant mononuclear leucocytes infiltration, few newly grew crypts with architectural disarray, denegation of epithelia, mucosa aberrant. There was also deep mucosal lymphocytosis, destruction of lamina propria and sometimes, transmural inflammation.
Same as example 1, except • 1), Three weeks' study with one week treatment.
DSS and all the treatment was removed and replaced with drinking water at the end of 1st week. Mice were given drink water and food ad libitum for additional 2 weeks.

[3] = system: TNBS-induced colitis; test: TNBS-induced colitis (model for Crohn's disease); format: in vivo, Male mice
Source text: Male mice colitis was induced by rectal co-administration of ethanol and TNBS (Trinitrobenzenesulfonic acid). Severe colitis in mice that was characterized by weight loss and diarrhea. Histologically there were loss of normal structures, visible discrete epithelioid granuloma, multiple erosive lesions, massive transmural inflammation infiltration of lymphocytes, and the loss of goblet cells. […] There was significant alleviation of lesions, few inflammatory infiltration with growing crypts and recovery mucosa epithelia along the column. […] In addition, in TNBS treated colitis mice, there were perianal symptoms: erythema, abscesses and ulcers found in some mice, which may lead to perianal fissures or fistulas. […] The therapeutically effects of R-salbuterol, R-clenbuterol and R-bambuterol on the symptoms in TNBS induced Crohn's disease has never been reported in prior art.

[4] = system: hemorrhoid inflammation symptoms; test: Hemorrhoid inflammation symptoms, oral or topical; format: in vivo; conditions: given either orally or topically
Source text: These perianal pathological changes somewhat similar to hemorrhoid inflammation symptoms. […] This new used of beta2 agonists in treatment of hemorrhoid inflammation symptoms has never been disclosed in prior art.

[5] = system: acne, maliaria, hives and eczema; test: Topical use on acne, maliaria, hives and eczema; format: in vivo
[6] = system: psoriasis and eczema; test: Oral administration in rats, psoriasis and eczema; format: in vivo
[7] = system: DSS induced sub-acute colitis; test: Prolonged (two weeks) treatment in DSS induced sub-acute colitis; format: in vivo, mice; conditions: evaluation at 23rd day, salbutamol 1 mg/kg, bambuterol 10 mg/kg
Source text: Same as example 2, except. 1), Two Weeks Treatment within a Three Weeks of Study
DSS was removed from drinking water at the end of 1st week. The treatments were started at 1st day for consecutive 14 days (2 weeks). Only drinking water given for the 3rd week. The evaluation and examination were made at 23rd day as did in example 1.

[8] = system: knee joints (articular cartilage, meniscus); test: Damage of knee joints in DSS induced IBD mice; format: in vivo; conditions: compared with untreated DSS mice
Source text: In one embodiment, in DSS induced IBD mice, there was also a damage of knee joints. The articular cartilage structure became thinner and partially destroyed. The chondrocytes were degenerated, decreased and clustered. The meniscuses were damaged and lost its structural integrity. In X-ray, the layer of articular cartilage was thinner and bone structure was decreased. […] The articular cartilage and bone structure increased toward normal.

[9] = system: IMQ-induced Psoriasis-Like Skin lesions; test: IMQ-induced psoriasis-like skin lesions; format: in vivo, mice; conditions: dorsal skin, IMQ-induced psoriasis mice
Protocol: Mice were divided into control, psoriasis and psoriasis plus treatment groups, (n=8 in each group). Psoriasis were induced by topical application of imiquimod cream (62.5 mg) on shaved dorsal skin for seven consecutive days. Vaseline was used in control group. There were four treatment groups: three doses of R-salbutamol (R-Sal) (0.5 mg, 1 mg, 2 mg/kg) and Dexamethasone (1 mg/kg) as positive control. All the treatments and same volume of saline (in control group) were administered orally. In some experiment, R-bambuterol (long-last beta2 agonist) was used as an additional treatment group (n=3). Psoriasis Area Severity Index were used for evaluation. Each of the scores for erythema, scaling and skin thickness were measured separately and then group together as a calculative score. (FIG. 2)

[10] = sub-acute or chronic DSS colitis, compared with untreated DSS mice
[11] = one week treatment, evaluation at 23rd day, R-S, S-S 1 mg/kg, R-B, S-B 10 mg/kg

SMILES | colon histology (H&E), in words [1] | Hist score (histological score) [1] | FOB (fecal occult blood) [1] | Weight [1] | DAI (disease active index) [1] | Col Length (colon length) [1] | DAI, in words [2, 10] | histological index / histological score, in words [2, 10] | hemorrhoid inflammation symptoms [4] | symptoms of acne, maliaria, hives and eczema [5] | psoriasis and eczema [6] | other results
CC(C)(C)NC[C@H](O)c1cc(Cl)c(N)c(Cl)c1 [R-C, R-clenbuterol] | greatly improved | 4.5 ± 0.5^ | 2 ± 0.5 | 89 ± 2.0 | 5 | 7 ± 0.7 | significantly improved | significantly improved | significantly alleviated | significantly alleviated | significantly ameliorate | submucosa fibrosis and narrowing of intestinal lumen ([3]; TNBS treated mice): not seen; weight loss, diarrhea, colon length versus normal control mice ([3]; oral administration): No significant different; disease condition of TNBS colitis, in words ([3]; oral administration (R-enantiomers)): great ameliorated
CN(C)C(=O)Oc1cc(OC(=O)N(C)C)cc([C@@H](O)CNC(C)(C)C)c1 [R-B, R-bambuterol] | greatly improved | 5 ± 0.5 | 1 ± 0.5 | 92 ± 3.3 | 6 | 7.2 ± 0.2^ | significantly improved | significantly improved; also recorded: significantly ameliorated | significantly alleviated |  |  | Col Length (colon length) [2, 11]: 7.9 ± 0.3; DAI (disease active index) [2, 11]: 6; FOB (fecal occult blood) [2, 11]: 1.1 ± 0.5; Hist score (histological score) [2, 11]: 4 ± 1; Weight [2, 11]: 112 ± 0.6; fecal occult blood, in words ([2]; sub-acute or chronic DSS colitis, day 14th and 22nd, compared with untreated DSS mice): significantly reduced; DAI, in words [7]: return toward normal; histological score, in words [7]: return toward normal; perianal manifestations (erythema, abscesses, ulcers) ([3]; TNBS treated mice): significantly alleviated; damage of articular cartilage, meniscus and bone structure of knee joints [8]: significantly ameliorated; histology of psoriasis skin lesions (HE) [9]: mostly recovered
CC(C)(C)NC[C@H](O)c1cc(O)cc(O)c1 [R-T, R-terbutaline] | greatly improved | 6.0 ± 1^ | 2 ± 0 | 88 ± 1.7 | 8 | 6.6 ± 0.3 | significantly improved | significantly improved |  | significantly alleviated | significantly ameliorate | 
